Measured values as given in PubChem BioAssay (NCI).
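Compound exposure: 48 hours, 5 concentrations, 96-well plates. TGI: total growth inhibition.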

Assays:
Assay in all cases: NCI-60 cell line screen, 48 h
[1] = tested on: ACHN renal
[2] = tested on: SN12C renal
[3] = tested on: PC-3 prostate
[4] = tested on: NCI-H226 lung
[5] = tested on: U251 CNS
[6] = tested on: SK-MEL-5 melanoma
[7] = tested on: HOP-92 NSCLC
[8] = tested on: NCI/ADR-RES ovarian
[9] = tested on: OVCAR-4 ovarian
[10] = tested on: OVCAR-3 ovarian
[11] = tested on: LOX IMVI melanoma
[12] = tested on: OVCAR-5 ovarian
[13] = tested on: UACC-62 melanoma
[14] = tested on: COLO 205 colon
[15] = tested on: MDA-N
[16] = tested on: HCC-2998 colon
[17] = tested on: NCI-H460 lung
[18] = tested on: SK-MEL-28 melanoma
[19] = tested on: IGROV1 ovarian
[20] = tested on: SF-268 CNS
[21] = tested on: SF-295 CNS
[22] = tested on: A549 NSCLC
[23] = tested on: CCRF-CEM leukemia
[24] = tested on: SR leukemia
[25] = tested on: EKVX NSCLC
[26] = tested on: BT-549 breast
[27] = tested on: T-47D breast
[28] = tested on: TK-10 renal
[29] = tested on: HOP-62 NSCLC
[30] = tested on: DU-145 prostate
[31] = tested on: UACC-257 melanoma
[32] = tested on: 786-0 renal
[33] = tested on: MOLT-4 leukemia
[34] = tested on: UO-31 renal
[35] = tested on: MALME-3M melanoma
[36] = tested on: SF-539 CNS
[37] = tested on: MDA-MB-435
[38] = tested on: KM12 colon
[39] = tested on: OVCAR-8 ovarian
[40] = tested on: SK-OV-3 ovarian
[41] = tested on: HCT-116 colon
[42] = tested on: HS 578T breast
[43] = tested on: NCI-H23 lung
[44] = tested on: RXF 393 renal
[45] = tested on: RPMI-8226 leukemia
[46] = tested on: MDA-MB-231 breast
[47] = tested on: SW-620 colon
[48] = tested on: HT29 colon
[49] = tested on: SK-MEL-2 melanoma
[50] = tested on: M14 melanoma
[51] = tested on: K-562 leukemia
[52] = tested on: CAKI-1 renal
[53] = tested on: MCF7 breast
[54] = tested on: A498 renal
[55] = tested on: SNB-19 CNS
[56] = tested on: HCT-15 colon
[57] = tested on: SNB-75 CNS
[58] = tested on: HL-60(TB) leukemia
[59] = tested on: NCI-H522 lung

In the case of `O=C(O)C1CC(C2CCCCN2)CN2CCCCC12` (centres undefined), the TGI [1] is reported as greater than 100 µM, the TGI [2] is reported as greater than 100 µM and the TGI [3] is reported as greater than 100 µM. It also gave a TGI [4] greater than 100 µM, a TGI [5] greater than 100 µM and a TGI [6] greater than 100 µM. For the same molecule, the TGI [7] was greater than 100 µM, the TGI [8] was greater than 100 µM and the TGI [9] was greater than 100 µM. For the same molecule, the TGI [10] was greater than 100 µM, the TGI [11] was greater than 100 µM and the TGI [12] was greater than 100 µM. It also gave a TGI [13] greater than 100 µM, a TGI [14] greater than 100 µM and a TGI [15] greater than 100 µM. It also gave a TGI [16] greater than 100 µM, a TGI [17] greater than 100 µM and a TGI [18] greater than 100 µM. For the same molecule, the TGI [19] was greater than 100 µM, the TGI [20] was greater than 100 µM and the TGI [21] was greater than 100 µM. The TGI [22] was greater than 100 µM, the TGI [23] was greater than 100 µM and the TGI [24] was greater than 100 µM. It also gave a TGI [25] greater than 100 µM, a TGI [26] greater than 100 µM and a TGI [27] greater than 100 µM. It also gave a TGI [28] greater than 100 µM, a TGI [29] greater than 100 µM and a TGI [30] greater than 100 µM. The TGI [31] was greater than 100 µM, the TGI [32] was greater than 100 µM and the TGI [33] was greater than 100 µM. For the same molecule, the TGI [34] was greater than 100 µM, the TGI [35] was greater than 100 µM and the TGI [36] was greater than 100 µM. The TGI [37] was greater than 100 µM, the TGI [38] was greater than 100 µM and the TGI [39] was greater than 100 µM. It also gave a TGI [40] greater than 100 µM, a TGI [41] greater than 100 µM and a TGI [42] greater than 100 µM. It also gave a TGI [43] greater than 100 µM, a TGI [44] greater than 100 µM and a TGI [45] greater than 100 µM. It also gave a TGI [46] greater than 100 µM, a TGI [47] greater than 100 µM and a TGI [48] greater than 100 µM. It also gave a TGI [49] greater than 100 µM, a TGI [50] greater than 100 µM and a TGI [51] greater than 100 µM. For the same molecule, the TGI [52] was greater than 100 µM, the TGI [53] was greater than 100 µM and the TGI [54] was greater than 100 µM. The TGI [55] was greater than 100 µM, the TGI [56] was greater than 100 µM and the TGI [57] was greater than 100 µM.
In the case of `Cc1nn(C(=O)c2ccc(Cl)cc2)c2c1C(c1ccccc1O)SC(N)=N2` (centres undefined), the TGI [1] is reported as greater than 10 µM, the TGI [2] is reported as greater than 10 µM and the TGI [3] is reported as greater than 10 µM. The TGI [4] was greater than 10 µM, the TGI [5] was greater than 10 µM and the TGI [6] was greater than 10 µM. It also gave a TGI [7] greater than 10 µM, a TGI [8] greater than 10 µM and a TGI [9] greater than 10 µM. For the same molecule, the TGI [10] was greater than 10 µM, the TGI [11] was greater than 10 µM and the TGI [12] was greater than 10 µM. For the same molecule, the TGI [13] was greater than 10 µM, the TGI [14] was greater than 10 µM and the TGI [15] was greater than 10 µM. For the same molecule, the TGI [16] was greater than 10 µM, the TGI [17] was greater than 10 µM and the TGI [18] was greater than 10 µM. The TGI [19] was greater than 10 µM, the TGI [20] was greater than 10 µM and the TGI [21] was greater than 10 µM. It also gave a TGI [22] greater than 10 µM, a TGI [23] greater than 10 µM and a TGI [24] greater than 10 µM. It also gave a TGI [25] greater than 10 µM, a TGI [26] greater than 10 µM and a TGI [27] greater than 10 µM. The TGI [28] was greater than 10 µM, the TGI [29] was greater than 10 µM and the TGI [30] was greater than 10 µM. The TGI [31] was greater than 10 µM, the TGI [32] was greater than 10 µM and the TGI [33] was greater than 10 µM. It also gave a TGI [35] greater than 10 µM, a TGI [58] greater than 10 µM and a TGI [36] greater than 10 µM. The TGI [37] was greater than 10 µM, the TGI [38] was greater than 10 µM and the TGI [39] was greater than 10 µM. The TGI [40] was greater than 10 µM, the TGI [41] was greater than 10 µM and the TGI [42] was greater than 10 µM. For the same molecule, the TGI [43] was greater than 10 µM, the TGI [44] was greater than 10 µM and the TGI [59] was greater than 10 µM. The TGI [45] was greater than 10 µM, the TGI [46] was greater than 10 µM and the TGI [47] was greater than 10 µM. The TGI [48] was greater than 10 µM, the TGI [49] was greater than 10 µM and the TGI [50] was greater than 10 µM. The TGI [51] was greater than 10 µM, the TGI [52] was greater than 10 µM and the TGI [53] was greater than 10 µM. It also gave a TGI [55] greater than 10 µM, a TGI [56] greater than 10 µM and a TGI [57] greater than 10 µM.
Molecule `COC(O)C(=O)c1c2c(cc3c1CCC3)CCC2` (centres undefined) has a TGI [1] greater than 100 µM, a TGI [2] greater than 100 µM and a TGI [3] greater than 100 µM. The TGI [4] was greater than 100 µM, the TGI [5] was greater than 100 µM and the TGI [6] was greater than 100 µM. For the same molecule, the TGI [8] was greater than 100 µM, the TGI [9] was greater than 100 µM and the TGI [10] was greater than 100 µM. It also gave a TGI [11] greater than 100 µM, a TGI [12] greater than 100 µM and a TGI [13] greater than 100 µM. It also gave a TGI [14] greater than 100 µM, a TGI [15] greater than 100 µM and a TGI [16] greater than 100 µM. It also gave a TGI [17] greater than 100 µM, a TGI [18] greater than 100 µM and a TGI [19] greater than 100 µM. It also gave a TGI [20] greater than 100 µM, a TGI [21] greater than 100 µM and a TGI [22] greater than 100 µM. The TGI [23] was greater than 100 µM, the TGI [24] was greater than 100 µM and the TGI [25] was greater than 100 µM. For the same molecule, the TGI [26] was greater than 100 µM, the TGI [27] was greater than 100 µM and the TGI [28] was greater than 100 µM. The TGI [29] was greater than 100 µM, the TGI [30] was greater than 100 µM and the TGI [31] was greater than 100 µM. The TGI [32] was greater than 100 µM, the TGI [33] was greater than 100 µM and the TGI [34] was greater than 100 µM. The TGI [35] was greater than 100 µM, the TGI [58] was 79.9 µM and the TGI [36] was greater than 100 µM. It also gave a TGI [37] greater than 100 µM, a TGI [38] greater than 100 µM and a TGI [39] greater than 100 µM. The TGI [40] was greater than 100 µM, the TGI [41] was greater than 100 µM and the TGI [42] was greater than 100 µM. The TGI [43] was greater than 100 µM, the TGI [59] was greater than 100 µM and the TGI [45] was greater than 100 µM. It also gave a TGI [46] greater than 100 µM, a TGI [47] greater than 100 µM and a TGI [48] greater than 100 µM. The TGI [49] was greater than 100 µM, the TGI [50] was greater than 100 µM and the TGI [51] was greater than 100 µM. The TGI [52] was greater than 100 µM, the TGI [53] was greater than 100 µM and the TGI [54] was greater than 100 µM. The TGI [55] was greater than 100 µM, the TGI [56] was greater than 100 µM and the TGI [57] was greater than 100 µM.
Molecule `OCC(O)C(O)C(O)C(O)CNCCO/N=C1/C(c2c(O)[nH]c3ccccc23)=Nc2ccccc21` (centres undefined) has a TGI [1] greater than 50 µM, a TGI [2] of 46.4 µM and a TGI [3] of 30.8 µM. For the same molecule, the TGI [4] was greater than 50 µM, the TGI [5] was 39.8 µM and the TGI [6] was 16.3 µM. For the same molecule, the TGI [7] was 26.9 µM, the TGI [8] was greater than 50 µM and the TGI [9] was greater than 50 µM. The TGI [10] was 26.3 µM, the TGI [11] was 17.3 µM and the TGI [12] was greater than 50 µM. For the same molecule, the TGI [13] was 17.5 µM, the TGI [14] was 40.6 µM and the TGI [15] was 19.4 µM. For the same molecule, the TGI [16] was 28.7 µM, the TGI [17] was greater than 50 µM and the TGI [18] was 20.7 µM. It also gave a TGI [19] greater than 50 µM, a TGI [20] of 28 µM and a TGI [21] greater than 50 µM. It also gave a TGI [22] greater than 50 µM, a TGI [23] of 30.2 µM and a TGI [24] of 25.3 µM. The TGI [25] was greater than 50 µM, the TGI [26] was 41.7 µM and the TGI [27] was 22.5 µM. The TGI [28] was greater than 50 µM, the TGI [29] was 22.9 µM and the TGI [30] was greater than 50 µM. For the same molecule, the TGI [31] was 37.9 µM, the TGI [32] was greater than 50 µM and the TGI [33] was 36.3 µM. The TGI [34] was greater than 50 µM, the TGI [35] was 27.7 µM and the TGI [58] was 37.9 µM. It also gave a TGI [36] of 41.6 µM, a TGI [37] of 20.4 µM and a TGI [38] greater than 50 µM. For the same molecule, the TGI [39] was greater than 50 µM, the TGI [40] was 29.8 µM and the TGI [41] was 38.2 µM. It also gave a TGI [42] of 44.4 µM, a TGI [43] of 23.7 µM and a TGI [44] of 39.2 µM. For the same molecule, the TGI [59] was 33 µM, the TGI [45] was greater than 50 µM and the TGI [46] was 29.7 µM. It also gave a TGI [47] greater than 50 µM, a TGI [48] greater than 50 µM and a TGI [49] of 15.7 µM. For the same molecule, the TGI [50] was greater than 50 µM, the TGI [51] was 44.4 µM and the TGI [52] was greater than 50 µM. The TGI [53] was 33.1 µM, the TGI [55] was 35.9 µM and the TGI [56] was greater than 50 µM. The TGI [57] was 24.5 µM.
